Consider 1 substance from patent US20230391729A1, “SUCCINATE SALTS OF N-(3-(4-(3-(DIISOBUTYLAMINO)PROPYL)PIPERAZIN-1-YL)PROPYL)-1H-BENZO[D]IMIDAZOL-2-AMINE, PREPARATION THEREOF AND USE OF THE SAME” (ALZPROTECT, priority 2020, published 2023).

In assay [1] the test system is dopaminergic (TH positive) neurons. Briefly: Survival and neurite network of TH(+) mesencephalic neurons after rotenone injury. Type of assay: cell-based, rat. The conditions noted are these: rotenone 10 nM 24 h. The procedure:
Rat dopaminergic neurons were cultured as described by Visanji et al. in FASEB J. 2008, 22(7): 2488-2497 and Callizot et al., in Plos One 2019: https://doi.org/10.1371/journal.pone.0215277. Briefly, pregnant female rat (Wistar) of 15 days of gestation were killed using a deep anesthesia with CO2 chamber and a cervical dislocation. The midbrains obtained from 15-day-old rat embryos (Janvier, France) were dissected under a microscope. The embryonic midbrains were removed and placed in ice-cold medium of Leibovitz (L15) containing 2% of Penicillin-Streptomycin (PS) and 1% of BSA. The ventral portion of the mesencephalic flexure, a region of the developing brain rich in dopaminergic neurons, were used for the cell preparations. The midbrains were dissociated by trypsinization for 20 min at 37° C. (solution at a final concentration of 0.05% trypsin and 0.02% EDTA). The reaction was stopped by the addition of DMEM containing DNAase I grade II (0.5 mg/mL) and 10% of FCS. Cells were then mechanically dissociated by 3 passages through a 10 ml pipette. Cells were then centrifuged at 180×g for 10 min at +4° C. on a layer of BSA (3.5%) in L15 medium. The supernatant was discarded and the cell pellets were re-suspended in a defined culture medium consisting of Neurobasal supplemented with B27 (2%), L-glutamine (2 mM) and 2% of PS solution and 10 ng/mL of BDNF and 1 ng/mL of Glial-Derived Neurotrophic Factor (GDNF). Viable cells were counted in a Neubauer cytometer using the trypan blue exclusion test. The cells were seeded at a density of 40,000 cells/well in 96 well-plates (pre-coated with poly-L-lysine) and maintained in a humidified incubator at 37° C. in 5% CO2/95% air atmosphere. Half of the medium was changed every 2 days with fresh medium. […]
The following read-outs were investigated: • neuron survival: total number of TH neurons (TH staining), • neurite network: total length of neurite network of TH positive neurons (in μm) • α-syn aggregation (area of overlapping between TH and α-syn staining in μm^2) […]

The next assay relates to PGRN. Description: Extracellular progranulin quantification by ELISA after Aβ1-42 injury. Format: cell-based, rat. The conditions noted are these: Aβ1-42 injury 72 h; 10 nM. The procedure: Rat cortical neurons cultured with microglia were cultured as described by Callizot et al. in J Neurosci Res. 2013, 91: 706-716 with modifications to include microglial cells. Pregnant female rats (Rats Wistar; Janvier Labs France) of 15 days of gestation were killed, after a deep anesthesia with CO2, by cervical dislocation. Then, fetuses were collected and immediately placed in ice-cold L15 Leibovitz medium with a 2% penicillin (10,000 U/ml) and streptomycin (10 mg/ml) solution (PS) and 1% bovine serum albumin (BSA). Cortexes were treated for 20 min at 37° C. with a trypsin-EDTA solution at a final concentration of 0.05% trypsin and 0.02% EDTA. […] Viable cells were counted in a Neubauer cytometer, using the trypan blue exclusion test. […]
Cortical neurons were intoxicated with A3 solutions (see below) after 11 days of culture. […] This solution was gently agitated for 3 days at 37° C. in the dark and immediately used after being properly diluted in control medium to the concentrations used ([…] of Aβ1-42 preparation containing […] of Aβ oligomers (AβO) measured by WB). […]
Levels of PGRN in the culture medium were determined by ELISA (Progranulin (rat) ELISA lit, Adipogen, Coger) according to manufacturer's recommendations. […] Optical density (OD) was assessed by spectrophotometry at 450 nm wavelength with a Glomax apparatus (Promega). […]
(ELISA stands for enzyme-linked immunosorbent assay.)

Turning to “N-(3-(4-(3-(diisobutylamino)propyl)piperazin-1-yl)propyl)-1H-benzo[d]imidazol-2-amine sesqui-succinate salt [sesqui-succinate salt Form 1]”, the “neuron survival: total number of TH neurons” value in assay [1] (administered directly with rotenone, all concentrations) was “significantly increased neuronal survival”; in assay [1] (pre-incubated, 10 and 50 nM) it was “significantly neuroprotective”. In addition, the “neurite network of TH positive neurons” value in assay [1] (pre and co-treatment, 10 to 100 nM) is “significantly improved”. The “levels of extracellular PGRN” value in the assay on PGRN is reported as “significantly increased”.
